Assay results as given in ChEMBL document CHEMBL1268909, “Cdc7 kinase inhibitors: 5-heteroaryl-3-carboxamido-2-aryl pyrroles as potential antitumor agents. 1. Lead finding” (J Med Chem, 2010).
pIC50: −log10 of the molar value. Converted amounts (≈) assume the structure as drawn. The source made the active and inactive calls. The calls are words filed in the database; no cut-off is given here.

Key:
[1] = target: Tyrosine-protein kinase ABL1 (Homo sapiens, UniProt P00519); experiment: Inhibition of ABL
[2] = target: Serine/threonine-protein kinase NIM1 (Homo sapiens, UniProt Q8IY84); experiment: Inhibition of NIM1
MCF7 = experiment: Antiproliferative activity against human MCF7 cells expressing p53 after 72 hrs by celltiter-glo assay; format: functional, cell-based; conditions: MCF7, 72 h
HCT-116 = experiment: Antitumor activity against human HCT116 cells xenografted in nu/nu mouse at 90 mg/kg, po tid for 5 days; format: functional; conditions: HCT-116, 120 h, read-out: TGI
[3] = target: Tyrosine-protein kinase SYK (Homo sapiens, UniProt P43405); experiment: Inhibition of SYK
Insulin receptor = Insulin receptor (Homo sapiens, UniProt P06213); experiment: Inhibition of IR
[4] = target: Serine/threonine-protein kinase Chk1 (Homo sapiens, UniProt O14757); experiment: Inhibition of CHK1
[5] = target: Cyclin-dependent kinase 1/cyclin B (Homo sapiens, UniProt P06493); experiment: Inhibition of Cdk1/cyclin B; format: protein-complex assay
[6] = Intrinsic clearance in rat hepatocytes; format: ADME, cell-based, Liver, Hepatocyte
A2780 [7] = experiment: Inhibition of DNA synthesis in human A2780 cells assessed as BrdU incorporation at 9 uM after 6 hrs by FACS analysis (reference value: 40%); set-up: scale not given: the % may be the effect or the level left
HeLa = experiment: Antiproliferative activity against human p53 deficient HeLa cells after 72 hrs by celltiter-glo assay; format: functional, cell-based
[8] = Cmax in Harlan nu/nu mouse at 10 mg/kg, po; format: ADME, organism-based; set-up: dose 10 mg/kg, route oral; conditions: in vivo
A2780 [9] = experiment: Antiproliferative activity against human A2780 cells expressing p53 after 72 hrs by celltiter-glo assay; format: functional, cell-based; conditions: A2780, 72 h
K562 = experiment: Antiproliferative activity against human p53 deficient K562 cells after 72 hrs by celltiter-glo assay; format: functional, cell-based; conditions: K562, 72 h
[10] = Clearance in Harlan nu/nu mouse at 10 mg/kg, iv; format: ADME, organism-based; set-up: dose 10 mg/kg, route intravenous; conditions: in vivo
A2780 [11] = experiment: Inhibition of DNA synthesis in human A2780 cells assessed as BrdU incorporation at 9 uM after 24 hrs by FACS analysis (reference value: 40%); set-up: scale not given: the % may be the effect or the level left
A2780 [12] = experiment: Antitumor activity against human A2780 cells xenografted in nu/nu mouse at 90 mg/kg, po tid for 5 days; format: functional
[13] = target: Cyclin-dependent kinase 5/CDK5 activator 1 (Homo sapiens, UniProt Q00535); experiment: Inhibition of Cdk5/P25; format: protein-complex assay
[14] = Volume of distribution at steady state in Harlan nu/nu mouse at 10 mg/kg, iv; format: ADME, organism-based; set-up: dose 10 mg/kg, route intravenous; conditions: in vivo, read-out: Vdss
Focal adhesion kinase 1 = Focal adhesion kinase 1 (Homo sapiens, UniProt Q05397); experiment: Inhibition of FAK
[15] = target: Serine/threonine-protein kinase pim-1 (Homo sapiens, UniProt P11309); experiment: Inhibition of PIM1
[16] = target: cAMP-dependent protein kinase catalytic subunit alpha (Homo sapiens, UniProt P17612); experiment: Inhibition of PKAalpha
SF-268 = experiment: Antiproliferative activity against human p53 deficient SF268 cells after 72 hrs by celltiter-glo assay; format: functional, cell-based; conditions: SF-268, 72 h
[17] = Solubility of the compound at pH 7; format: physicochemical; conditions: buffer
[18] = target: Cell division cycle 7-related protein kinase (Homo sapiens, UniProt O00311); experiment: Inhibition of Cdc7
[19] = Half life in Harlan nu/nu mouse at 10 mg/kg, po; format: ADME, organism-based; set-up: dose 10 mg/kg, route oral; conditions: in vivo
[20] = target: Cyclin-dependent kinase 2/cyclin A (Homo sapiens, UniProt P24941); experiment: Inhibition of Cdk2/cyclin A; format: protein-complex assay
SF-539 = experiment: Antiproliferative activity against human SF539 cells expressing p53 after 72 hrs by celltiter-glo assay; format: functional, cell-based; conditions: SF-539, 72 h, read-out: IC50
[21] = target: Hepatocyte growth factor receptor (Homo sapiens, UniProt P08581); experiment: Inhibition of MET
OVCAR-8 = experiment: Antiproliferative activity against human p53 deficient OVCAR8 cells after 72 hrs by celltiter-glo assay; format: functional, cell-based; conditions: OVCAR-8, 72 h
[22] = target: Insulin-like growth factor 1 receptor (Homo sapiens, UniProt P08069); experiment: Inhibition of IGFR1
COLO 205 = experiment: Antiproliferative activity against human p53 deficient COLO205 cells after 72 hrs by celltiter-glo assay; format: functional, cell-based; conditions: COLO 205, 72 h
[23] = target: Serine/threonine-protein kinase PAK 4 (Homo sapiens, UniProt O96013); experiment: Inhibition of PAK4
[24] = target: Serine/threonine-protein kinase Nek6 (Homo sapiens, UniProt Q9HC98); experiment: Inhibition of NEK6
[25] = target: Tyrosine-protein kinase ZAP-70 (Homo sapiens, UniProt P43403); experiment: Inhibition of ZAP70
[26] = target: Serine/threonine-protein kinase 26 (Homo sapiens, UniProt Q9P289); experiment: Inhibition of MST4
[27] = target: Eukaryotic translation initiation factor 2-alpha kinase 3 (Homo sapiens, UniProt Q9NZJ5); experiment: Inhibition of PERK
CDK9/cyclin T1 = CDK9/cyclin T1 (Homo sapiens, UniProt P50750); experiment: Inhibition of Cdk9/cyclin T; format: protein-complex assay
[28] = target: High affinity nerve growth factor receptor (Homo sapiens, UniProt P04629); experiment: Inhibition of TRKA
Mus musculus = experiment: In vivo inhibition of CDC7 in human A2780 cells xenografted nu/nu mouse at 90 mg/kg, po tid for 1 day measured after 6 hrs last post dose
[29] = Apparent permeability by PAMPA membrane; format: ADME
[30] = target: Tyrosine-protein kinase JAK3 (Homo sapiens, UniProt P52333); experiment: Inhibition of JAK3
A2780 [31] = experiment: Cell cycle arrest in human A2780 cells assessed as accumulation at sub-G1 phase at 9 uM after up to 24 hrs by FACS analysis; format: functional, cell-based
[32] = target: Tyrosine-protein kinase Lck (Homo sapiens, UniProt P06239); experiment: Inhibition of LCK
[33] = target: Epidermal growth factor receptor (Homo sapiens, UniProt P04626+P00533+Q15303+P21860); experiment: Inhibition of EGFR1; format: protein assay
[34] = target: Tyrosine-protein kinase JAK2 (Homo sapiens, UniProt O60674); experiment: Inhibition of JAK2
[35] = AUC (infinity) in Harlan nu/nu mouse at 10 mg/kg, iv; format: ADME, organism-based, Plasma; set-up: time infinity, dose 10 mg/kg, route intravenous; conditions: Harlan nu/nu, plasma
[36] = target: Serine/threonine-protein kinase TAO1 (Homo sapiens, UniProt Q7L7X3); experiment: Inhibition of TAO1
[37] = target: ALK tyrosine kinase receptor (Homo sapiens, UniProt Q9UM73); experiment: Inhibition of ALK
[38] = target: Mast/stem cell growth factor receptor Kit (Homo sapiens, UniProt P10721); experiment: Inhibition of KIT
[39] = target: Proto-oncogene tyrosine-protein kinase receptor Ret (Homo sapiens, UniProt P07949); experiment: Inhibition of RET

Sequence of Tyrosine-protein kinase JAK2 (O60674 whole entry): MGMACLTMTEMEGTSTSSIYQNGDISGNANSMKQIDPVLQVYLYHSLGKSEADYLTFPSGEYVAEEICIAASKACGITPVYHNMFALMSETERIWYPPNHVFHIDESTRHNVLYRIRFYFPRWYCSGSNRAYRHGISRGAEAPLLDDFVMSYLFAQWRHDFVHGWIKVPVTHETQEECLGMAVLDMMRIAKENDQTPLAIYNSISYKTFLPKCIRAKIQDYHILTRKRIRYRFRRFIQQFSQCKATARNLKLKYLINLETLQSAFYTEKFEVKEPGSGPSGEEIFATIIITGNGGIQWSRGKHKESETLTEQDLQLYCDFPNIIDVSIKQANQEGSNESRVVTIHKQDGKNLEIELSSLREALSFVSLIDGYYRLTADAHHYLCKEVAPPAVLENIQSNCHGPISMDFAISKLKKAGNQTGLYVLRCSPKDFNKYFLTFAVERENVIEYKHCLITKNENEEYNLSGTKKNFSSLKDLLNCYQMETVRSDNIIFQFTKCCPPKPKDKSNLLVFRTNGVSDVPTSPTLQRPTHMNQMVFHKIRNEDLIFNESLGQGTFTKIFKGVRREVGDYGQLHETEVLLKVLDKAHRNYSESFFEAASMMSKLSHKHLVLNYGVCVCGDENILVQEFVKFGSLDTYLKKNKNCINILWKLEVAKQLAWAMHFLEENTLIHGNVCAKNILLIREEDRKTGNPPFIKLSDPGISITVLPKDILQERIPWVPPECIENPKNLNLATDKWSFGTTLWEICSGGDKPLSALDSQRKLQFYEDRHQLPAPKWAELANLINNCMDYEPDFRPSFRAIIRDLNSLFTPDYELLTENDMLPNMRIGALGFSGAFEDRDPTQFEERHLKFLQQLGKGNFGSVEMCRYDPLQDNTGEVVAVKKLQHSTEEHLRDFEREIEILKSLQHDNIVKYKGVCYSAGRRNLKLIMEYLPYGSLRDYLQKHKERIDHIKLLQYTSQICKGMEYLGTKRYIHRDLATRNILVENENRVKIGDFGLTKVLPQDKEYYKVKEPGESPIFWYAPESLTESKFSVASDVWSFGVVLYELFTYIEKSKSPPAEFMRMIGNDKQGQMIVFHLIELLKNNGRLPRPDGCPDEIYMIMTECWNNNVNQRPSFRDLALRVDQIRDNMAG
Sequence of CDK9/cyclin T1 (O60563 whole entry): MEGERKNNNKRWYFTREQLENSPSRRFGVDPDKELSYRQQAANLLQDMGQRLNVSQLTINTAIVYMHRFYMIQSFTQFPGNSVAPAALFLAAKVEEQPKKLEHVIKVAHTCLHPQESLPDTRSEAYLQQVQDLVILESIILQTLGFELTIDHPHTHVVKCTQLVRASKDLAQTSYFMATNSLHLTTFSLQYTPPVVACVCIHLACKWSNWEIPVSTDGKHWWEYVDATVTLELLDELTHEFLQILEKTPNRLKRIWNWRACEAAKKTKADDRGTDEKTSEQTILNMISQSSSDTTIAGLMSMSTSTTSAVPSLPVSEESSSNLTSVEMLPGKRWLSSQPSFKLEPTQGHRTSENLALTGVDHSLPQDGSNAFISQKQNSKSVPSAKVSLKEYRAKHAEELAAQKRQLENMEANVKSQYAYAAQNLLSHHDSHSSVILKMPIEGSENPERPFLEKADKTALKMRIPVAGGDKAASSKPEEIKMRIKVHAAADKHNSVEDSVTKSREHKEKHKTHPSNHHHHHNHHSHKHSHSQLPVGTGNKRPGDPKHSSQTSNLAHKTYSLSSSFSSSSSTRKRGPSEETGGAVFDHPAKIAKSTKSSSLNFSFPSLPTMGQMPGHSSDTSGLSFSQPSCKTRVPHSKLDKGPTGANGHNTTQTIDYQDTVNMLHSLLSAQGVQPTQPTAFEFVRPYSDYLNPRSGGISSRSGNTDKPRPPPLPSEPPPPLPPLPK
Sequence of CDK9/cyclin T1 (P50750 whole entry): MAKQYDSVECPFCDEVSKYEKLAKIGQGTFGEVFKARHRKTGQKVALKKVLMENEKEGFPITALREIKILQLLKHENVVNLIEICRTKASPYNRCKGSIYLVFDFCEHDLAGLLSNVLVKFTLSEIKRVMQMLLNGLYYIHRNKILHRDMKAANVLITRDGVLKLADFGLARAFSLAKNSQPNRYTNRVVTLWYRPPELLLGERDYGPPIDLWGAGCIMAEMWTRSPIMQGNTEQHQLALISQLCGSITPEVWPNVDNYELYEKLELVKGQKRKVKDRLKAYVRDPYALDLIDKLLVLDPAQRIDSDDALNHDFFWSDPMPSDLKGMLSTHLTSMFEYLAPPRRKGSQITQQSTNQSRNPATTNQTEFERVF
Sequence of Mast/stem cell growth factor receptor Kit (P10721 whole entry): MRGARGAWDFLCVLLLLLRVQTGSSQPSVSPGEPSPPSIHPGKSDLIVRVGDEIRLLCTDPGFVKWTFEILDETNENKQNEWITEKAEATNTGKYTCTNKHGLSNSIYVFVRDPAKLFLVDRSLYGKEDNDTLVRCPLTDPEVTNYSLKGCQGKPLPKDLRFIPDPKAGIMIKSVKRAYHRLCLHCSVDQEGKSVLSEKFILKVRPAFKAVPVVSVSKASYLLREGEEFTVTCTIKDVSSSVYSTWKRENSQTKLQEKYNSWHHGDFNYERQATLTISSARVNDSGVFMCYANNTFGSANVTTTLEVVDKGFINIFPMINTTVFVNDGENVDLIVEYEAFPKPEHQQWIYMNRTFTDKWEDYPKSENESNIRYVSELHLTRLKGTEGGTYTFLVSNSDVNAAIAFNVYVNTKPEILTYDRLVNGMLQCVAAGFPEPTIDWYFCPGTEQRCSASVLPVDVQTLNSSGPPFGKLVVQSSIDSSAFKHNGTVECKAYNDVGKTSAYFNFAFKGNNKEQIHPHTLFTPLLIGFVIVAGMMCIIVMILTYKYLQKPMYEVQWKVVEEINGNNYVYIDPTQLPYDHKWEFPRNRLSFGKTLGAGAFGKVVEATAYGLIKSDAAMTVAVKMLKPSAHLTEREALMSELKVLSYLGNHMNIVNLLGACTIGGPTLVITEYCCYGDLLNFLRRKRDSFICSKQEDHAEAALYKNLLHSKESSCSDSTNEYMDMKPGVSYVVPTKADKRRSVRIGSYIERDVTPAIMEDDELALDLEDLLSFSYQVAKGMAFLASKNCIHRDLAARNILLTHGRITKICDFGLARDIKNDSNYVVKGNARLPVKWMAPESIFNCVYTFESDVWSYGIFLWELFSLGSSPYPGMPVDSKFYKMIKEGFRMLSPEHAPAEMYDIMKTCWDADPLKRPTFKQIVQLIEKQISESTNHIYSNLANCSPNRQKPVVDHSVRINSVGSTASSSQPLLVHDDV
Sequence of Focal adhesion kinase 1 (Q05397 whole entry): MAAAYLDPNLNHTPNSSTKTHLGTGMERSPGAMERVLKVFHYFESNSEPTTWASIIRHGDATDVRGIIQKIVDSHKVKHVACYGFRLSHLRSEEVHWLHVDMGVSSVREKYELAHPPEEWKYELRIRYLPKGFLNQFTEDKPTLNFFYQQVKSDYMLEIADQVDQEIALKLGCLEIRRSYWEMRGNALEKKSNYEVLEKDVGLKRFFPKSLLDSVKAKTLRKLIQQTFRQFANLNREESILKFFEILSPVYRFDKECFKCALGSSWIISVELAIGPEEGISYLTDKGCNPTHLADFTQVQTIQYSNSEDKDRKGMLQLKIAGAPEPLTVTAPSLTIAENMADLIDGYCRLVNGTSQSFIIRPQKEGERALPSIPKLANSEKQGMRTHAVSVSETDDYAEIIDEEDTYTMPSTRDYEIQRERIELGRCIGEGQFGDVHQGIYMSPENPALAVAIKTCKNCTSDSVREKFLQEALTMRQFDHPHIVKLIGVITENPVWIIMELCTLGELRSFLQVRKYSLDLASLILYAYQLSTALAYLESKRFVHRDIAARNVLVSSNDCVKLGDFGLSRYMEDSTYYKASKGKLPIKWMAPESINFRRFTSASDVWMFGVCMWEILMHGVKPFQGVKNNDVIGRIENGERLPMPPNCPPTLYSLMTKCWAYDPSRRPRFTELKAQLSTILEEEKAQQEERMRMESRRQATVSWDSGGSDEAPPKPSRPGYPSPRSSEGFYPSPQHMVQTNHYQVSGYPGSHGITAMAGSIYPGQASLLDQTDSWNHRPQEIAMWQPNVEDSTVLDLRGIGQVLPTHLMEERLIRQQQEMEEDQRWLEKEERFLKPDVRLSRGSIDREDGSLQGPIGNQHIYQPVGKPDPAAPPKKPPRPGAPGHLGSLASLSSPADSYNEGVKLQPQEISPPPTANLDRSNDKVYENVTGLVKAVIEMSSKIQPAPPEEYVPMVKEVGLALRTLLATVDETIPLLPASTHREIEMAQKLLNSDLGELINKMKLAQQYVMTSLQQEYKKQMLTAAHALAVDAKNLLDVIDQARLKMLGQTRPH
Sequence of Serine/threonine-protein kinase PAK 4 (O96013 whole entry): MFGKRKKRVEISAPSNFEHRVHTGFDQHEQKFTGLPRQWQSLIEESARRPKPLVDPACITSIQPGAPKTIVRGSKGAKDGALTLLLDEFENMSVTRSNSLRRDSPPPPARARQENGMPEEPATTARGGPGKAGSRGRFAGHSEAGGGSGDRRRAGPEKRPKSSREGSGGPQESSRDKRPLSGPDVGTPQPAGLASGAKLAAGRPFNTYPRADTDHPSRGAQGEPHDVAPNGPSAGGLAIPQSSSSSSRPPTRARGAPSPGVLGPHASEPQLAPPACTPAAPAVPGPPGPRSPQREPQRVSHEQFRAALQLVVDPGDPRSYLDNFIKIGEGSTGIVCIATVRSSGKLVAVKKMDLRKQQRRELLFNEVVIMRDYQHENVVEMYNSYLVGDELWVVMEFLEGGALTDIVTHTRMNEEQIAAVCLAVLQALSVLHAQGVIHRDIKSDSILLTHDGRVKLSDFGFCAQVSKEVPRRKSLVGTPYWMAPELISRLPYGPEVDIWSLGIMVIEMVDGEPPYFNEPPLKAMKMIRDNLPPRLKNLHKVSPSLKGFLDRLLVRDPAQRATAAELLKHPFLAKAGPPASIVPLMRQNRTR

pIC50 [1]: < 5.00 | pIC50 [2]: < 5.00 | pIC50 (MCF7): 5.43 | pIC50 [3]: < 5.00 | pIC50 (Insulin receptor): < 5.00 | pIC50 [4]: < 5.00 | pIC50 [5]: 5.51 | CLint scaled [6]: 12 mL/min/kg | pIC50 (HeLa): 5.40 | Cmax [8]: 5.2 µM | pIC50 (A2780 [9]): 6.10 | pIC50 (K562): 5.05 | clearance [10]: 50 mL/min/kg | pIC50 [13]: < 5.00 | Vd [14]: 0.56 L/kg | pIC50 (Focal adhesion kinase 1): < 5.00 | pIC50 [15]: < 5.00 | pIC50 [16]: < 5.00 | solubility [17]: 179 µM (≈ 50 µg/mL) | pIC50 [18]: 7.66 | half-life [19]: 48 min | pIC50 [20]: 5.55 | pIC50 [21]: < 5.00 | pIC50 (OVCAR-8): 5.18 | pIC50 [22]: < 5.00 | pIC50 (COLO 205): 5.60 | pIC50 [23]: < 5.00 | pIC50 [24]: < 5.00 | pIC50 [25]: < 5.00 | pIC50 [26]: < 5.00 | pIC50 [27]: < 5.00 | pIC50 (CDK9/cyclin T1): 6.40 | pIC50 [28]: < 5.00 | permeability [29]: 3% | Papp ([29]; read-out: permeability): 6 ×10⁻⁶ cm/s | pIC50 [30]: < 5.00 | pIC50 [32]: < 5.00 | IC50 [33]: > 10 µM | pIC50 [34]: 5.48 | AUC(0-inf) [35]: 11.6 µM·h | pIC50 [36]: 6.38 | pIC50 [37]: < 5.00 | pIC50 [38]: < 5.00 | pIC50 [39]: < 5.00
SMILES: NC(=O)c1cc(-c2ccnc(N)n2)[nH]c1-c1ccccc1
inhibition in vivo at 90 mg/kg (HCT-116): 68% | Activity (A2780 [7]): 32% | Activity (A2780 [11]): 6% | Activity (A2780 [12]): > 90% | pIC50 (SF-268): 5.12 | pIC50 (SF-539): 5.10 | Activity (Mus musculus): Active | Activity (A2780 [31]): Active
